How the values were obtained:
chronic rhinosinusitis = experiment: Case studies: patients with chronic rhinosinusitis treated with nebulized formulation; assay type: in vivo, human; conditions: particularly in combination with the compositions and formulations; vancomycin in cases where MRSA is present
From the text: In all of the following studies, the skin testing of Example 1 was used to identify the inhalant antigen or antigens responsible for triggering systemic inflammatory symptoms and the localized inflammatory sinus symptoms. The chronic rhinosinusitis of the patients was all successfully treated. Moreover, the patients also experienced resolution of systemic inflammatory symptoms.
Each of the patients avoided additional exposure to the fungal spores that were identified by the skin test. The patients ostia was dilated, and the formulation was administered with a nebulizer. Additionally, systemic anti-fungal medication directed toward the specific fungi was administered for 4-6 weeks, followed by intermittent nebulization with mometasone and 2% mupirocin powder, which has both anti-fungal and anti-bacterial properties. These treatments were administered every other day to every third day for several months with C-reactive protein (CRP} levels checked every 4-6 weeks to monitor change.
Patient 1 is a retired nurse who presented with chronic fatigue, chronic headaches, facial pain, and a sleep disorder characterized by Rapid Eye Movement (REM) sleep deprivation. The patient was a two pack/day smoker. […] The patient was treated with a formulation of 125 mg tobramycin, […]

[1] = cited from earlier work; for systemic absorption: used topically
[2] = test system: gram negative and gram positive organisms; conditions: cited from earlier work
S. aureus = experiment: Culture from Patient 7, sensitivity of bacteria; assay type: cell-based; conditions: Patient 7 culture
From the text: The patient underwent the standard workup for CRS, sleep disorder, and nasal obstruction, plus our diagnostic skin test and sinus CT scan.

SMILES	effectiveness of the antibiotic (chronic rhinosinusitis)	oral absorption ([1]; orally)	systemic absorption [1]	activity against gram negative and gram positive organisms [2]	sensitivity of cultured S. aureus (S. aureus)	safety ([1]; topical, nasal cavity and sinuses, approved for children under the age of 3)
CN[C@H](CC(C)C)C(=O)N[C@H]1C(=O)N[C@@H](CC(N)=O)C(=O)N[C@H]2C(=O)N[C@H]3C(=O)N[C@H](C(=O)N[C@H](C(=O)O)c4cc(O)cc(O)c4-c4cc3ccc4O)[C@H](O)c3ccc(c(Cl)c3)Oc3cc2cc(c3O[C@@H]2O[C@H](CO)[C@@H](O)[C@H](O)[C@H]2O[C@H]2C[C@](C)(N)[C@H](O)[C@H](C)O2)Oc2ccc(cc2Cl)[C@H]1O [vancomycin]	highly effective	–	–	–	–	–
NC[C@H]1O[C@H](O[C@H]2[C@H](O)[C@@H](O[C@H]3O[C@H](CO)[C@@H](O)[C@H](N)[C@H]3O)[C@H](N)C[C@@H]2N)[C@H](N)C[C@@H]1O [tobramycin]	highly effective	very, very poorly absorbed	not absorbed systemically	excellent activity	sensitive	–
C[C@@H]1C[C@H]2[C@@H]3CCC4=CC(=O)C=C[C@]4(C)[C@@]3(Cl)[C@@H](O)C[C@]2(C)[C@@]1(OC(=O)c1ccco1)C(=O)CCl [Mometasone furoate]	–	–	very little systemic absorption	–	–	very safe
